The results in this text go back to patent US5482970A (priority 1993, dated 1996).

Series [1] relates to prostate. The series can be described thus: In vivo antiandrogen activity test, rat: prostate (systemic effect).
A short description of series [2]: Hydrolysis in blank receptor solution. In kind it is physicochemical. The settings on record: 40% w/v polyethylene glycol 400/normal saline, 37° C., time course of permeation experiment. From the text:
(§1) The freshly excised hairless mouse skin was used in the two-compartment diffusion cell method of Chlen et at., Drug Development and Industrial Pharmacy, 11, […] (1985). The hairless mouse (HRS/J strain) was sacrificed just prior to the experiment by cervical dislocation. A square section of the abdominal skin was surgically removed and mounted between two side-by-side half cells; the exposed area of the skin being approximately 0.64 cm^2. A 1-10% weight/volume (w/v) solution of inocoterone acetate and vehicle was added to the donor compartment and a 40% w/v polyethylene glycol 400/normal saline solution was added to the receptor compartment. Simultaneous skin permeation and biotransformation studies Were conducted in a thermostated diffusion cell apparatus at 37° C. At appropriate intervals samples were withdrawn from the receptor compartment and analyzed for inocoterone acetate and its metabolite, inocoterone, by high pressure liquid chromatography. […] Each experiment was carried out in at least triplicate. This method was used in Examples 3 to 6.

Series [3] has as its system rat sebaceous gland. The series can be described thus: In vivo antiandrogen activity test, rat: volume density of smooth endoplasmic reticulum of the sebaceous gland.
A short description of series [4]: In vitro skin permeation and metabolism, two-compartment diffusion cell (Example 6). The class given is in vitro ADME, hairless mouse (HRS/J strain). As to conditions: for metabolised at 5 h: mouse, of total permeated, read-out: % Metabolite; for Transdermal Flux Q1, Inocoterone: metabolite from applied inocoterone acetate.
Description: as §1
Compositions of 10% w/v of inocoterone acetate in vehicle solutions were prepared by dissolving 1 g of the medicament in 10 ml of a mixture of isopropyl myristate and 95% ethanol in the following volume percent ratios: 100:0, 95:5, 70:30, 60:40, 50:50, 40:60, 30:70, 5:95 and 0:100, respectively. The in vitro skin permeation and metabolism rates were measured using the method described under the in vitro skin permeation test method. The results of these measurements, in terms of the cumulative mount of unchanged medicament and its metabolite permeated in μmoles per square centimeter with time, over 5 hours are given in FIG. 1.
In this example, the results of the use of ethanol as the polar organic solvent in combination with various fatty acid esters for the simultaneous skin permeation and metabolism of inocoterone acetate solution are shown.

Series [5] in a line: In vitro skin permeation and metabolism of Carbopol 940 gels, Franz diffusion cell (Example 13). The class given is in vitro ADME, hairless mouse. As to conditions: for metabolised at 5 h: mouse, read-out: % Metabolite; for Transdermal Flux Q1, Inocoterone: metabolite. The protocol:
For the evaluation of pharmaceutical compositions of the present invention, the freshly excised hairless mouse skin was used in the diffusion cell method of Franz, Current Problems in Dermatology, 7, 58-68 (1978), in a vertical position, the exposed area of the skin being approximately 1.8 cm^2. The pharmaceutical formulation of known concentration in vehicle was added to the upper compartment of the cell, which was exposed to the stratum corneum side of the skin, and a 40% polyethylene glycol 400/normal saline solution was placed in the lower compartment The penetration and metabolism rates were studied in a thermostated diffusion cell at 37° C. using the analytical method described above. Each experiment was carried out in at least triplicate. This method was used in Examples 7 and 13.
In this example the simultaneous skin permeation and metabolism rates of inocoterone acetate incorporated in the Carbopol 940 gels formulated using the compositions described in Example 7 are shown.

The mark [6] stands for this setting: vehicle 10% Butyl laurate-90% Ethanol.
Setting [7] is: vehicle 10% Ethyl laurate-90% Ethanol.
[8] abbreviates: vehicle 10% Ethyl oleate-90% Ethanol.
[9] abbreviates: vehicle 10% Isopropyl palmitate-90% Ethanol.
Setting [10] is: vehicle 10% Propyl laurate-90% Ethanol.
The mark [11] stands for this setting: Carbopol 940 gel: inocoterone acetate 10.0, butyl laurate 6.0, ethanol 50.0% w/w.
Where [12] appears, read: Carbopol 940 gel: inocoterone acetate 10.0, ethyl laurate 6.0, ethanol 50.0% w/w.
[13] abbreviates: Carbopol 940 gel: inocoterone acetate 10.0, isopropyl myristate 6.0, ethanol 50.0% w/w.

SMILES strings stand for the structures.

On to `CCC1=C2CC[C@]3(C)[C@@H](OC(C)=O)CC[C@H]3[C@@H]2CCC1=O` [Inocoterone acetate, 3β-acetoxy-6-ethyl-3αβ-methyl-1,2,3,3a, 4,5,8,9,9a,9b-decahydro-7H-benz(e)inden-7-one], for which the “effect on prostate weight” value in series [1] (intact and castrated testosterone propionate-treated rats, topical, any dose (0.25 to 25 mg/rat/day)) is given as “no significant effect on prostate weight at any dose”. The “systemic antiandrogenic effect as evidenced by changes in the prostate” value in series [1] (isopropyl myristate-ethanol mixture, topical 0.5 mg/cm^2/day, 5 days, testosterone propionate-treated castrated rats) is “resulted in a systemic anfiandrogenic effect”. Also, the “hydrolysis in the blank receptor solution” value in series [2] is listed as “No significant hydrolysis”. Besides, the “inhibition of testosterone-induced increase in volume density of smooth endoplasmic reticulum vesicles in intermediate cells of sebaceous gland” value in series [3] (40% isopropyl myristate-60% ethanol, 0.5 mg/cm^2/day, 5 days, 5 cm^2, testosterone propionate-treated castrated rats) was “completely inhibited”. The “inhibition of the effects of testosterone on the sebaceous gland” value in series [3] (ethanol vehicle, 0.5 mg/cm^2/day, 5 days, 5 cm^2, testosterone propionate-treated castrated rats) stood at 60%. In addition, in series [3] (intact rats and castrated rats stimulated with testosterone propionate, topical, 0.25 to 25 mg/rat/day, 1 to 3 weeks), the “volume density of smooth endoplasmic reticulum (SER)” value was “dose related reduction in volume density of SER”. Further, the “efficacy in isopropyl myristate-ethanol mixture” value in series [3] (isopropyl myristate-ethanol mixture compared with ethanol) is on record as “greater efficacy”. Besides, the transcutaneous penetration entry in series [4] (isopropyl myristate-ethanol mixture, Example 3) is listed as “increased transcutaneous penetration”. Further, the metabolised at 5 h is 57.7% in series [4] (setting [6]); 67.5% in series [4] (setting [7]); 66.4% in series [4] (setting [8]); 74.5% in series [4] (setting [9]); 70.2% in series [4] (setting [10]); 100% in series [4] (vehicle Ethanol). Further, the figures for the metabolised at 5 h in series [5] (setting [11]), in series [5] (setting [12]) and in series [5] (setting [13]) were 59.4%, 57.8% and 63.4%, respectively. The “Transdermal Flux Q1, Inocoterone Acetate” value in series [4] (setting [6]) is listed as 39.9 × 10^2 μmoles/cm^2 /5 hrs; in series [4] (setting [7]) it was 28.1 × 10^2 μmoles/cm^2 /5 hrs; in series [4] (setting [8]), 18.5 × 10^2 μmoles/cm^2 /5 hrs; in series [4] (setting [9]), 9.4 × 10^2 μmoles/cm^2 /5 hrs; in series [4] (setting [10]) it was 25.8 × 10^2 μmoles/cm^2 /5 hrs; in series [4] (vehicle Ethanol), 0 × 10^2 μmoles/cm^2 /5 hrs. Moreover, the “Transdermal Flux Q1, Inocoterone Acetate” value is 45.2 × 10^2 μmoles/cm^2 /5 hours in series [5] (setting [11]), 38.4 × 10^2 μmoles/cm^2 /5 hours in series [5] (setting [12]) and 36.2 × 10^2 μmoles/cm^2 /5 hours in series [5] (setting [13]). Further, the “Transdermal Flux Q1, Total Inocoterone” value in series [4] (setting [6]) was 94.4 × 10^2 μmoles/cm^2 /5 hrs; in series [4] (setting [7]) it was 86.4 × 10^2 μmoles/cm^2 /5 hrs; in series [4] (setting [8]) it was 55.1 × 10^2 μmoles/cm^2 /5 hrs; in series [4] (setting [9]) it was 36.9 × 10^2 μmoles/cm^2 /5 hrs; in series [4] (setting [10]), 86.6 × 10^2 μmoles/cm^2 /5 hrs; in series [4] (vehicle Ethanol) it was 1.1 × 10^2 μmoles/cm^2 /5 hrs. For the same compound, the “Transdermal Flux Q1, Total Inocoterone” value in series [5] (setting [11]) is 111.4 × 10^2 μmoles/cm^2 /5 hours; in series [5] (setting [12]), 91.1 × 10^2 μmoles/cm^2 /5 hours; in series [5] (setting [13]), 99.0 × 10^2 μmoles/cm^2 /5 hours.
Take `CCC1=C2CC[C@]3(C)[C@@H](O)CC[C@H]3[C@@H]2CCC1=O` [Inocoterone, 6-ethyl-3αβ-methyl-1,2,3,3a,4,5,8,9,9a,9b-decahydro-7H-benz(e)inden-3-ol-7-one]: the “Transdermal Flux Q1, Inocoterone” value is on record as 54.5 × 10^2 μmoles/cm^2 /5 hrs in series [4] (setting [6]); 58.3 × 10^2 μmoles/cm^2 /5 hrs in series [4] (setting [7]); 36.6 × 10^2 μmoles/cm^2 /5 hrs in series [4] (setting [8]); 27.5 × 10^2 μmoles/cm^2 /5 hrs in series [4] (setting [9]); 60.8 × 10^2 μmoles/cm^2 /5 hrs in series [4] (setting [10]); 1.1 × 10^2 μmoles/cm^2 /5 hrs in series [4] (vehicle Ethanol). For the same compound, the “Transdermal Flux Q1, Inocoterone” value in series [5] (setting [11]) was 66.2 × 10^2 μmoles/cm^2 /5 hours; in series [5] (setting [12]) it was 52.7 × 10^2 μmoles/cm^2 /5 hours; in series [5] (setting [13]), 62.8 × 10^2 μmoles/cm^2 /5 hours.
